Assay [1] has as its system secreted VEGF (Hep3B/VEGF Luciferase cells). Nature of the assay: Secreted VEGF ELISA test in Hep3B-VEGF Luciferase cells, hypoxia induced by deferoxamine. Type of assay: cell-based. The note with it: Homo sapiens, deferoxamine about 100 μM, 18-20 hours, 50% reduction of secreted VEGF. On the procedure: (§1) The compounds having inhibitory activity in the Hif-1a/p300 assay described above were evaluated using a cellular test on genetically modified human hepatocarcinoma Hep3B cells (Hep3B-VEGFLuciferase) in order to stably express a vector in which the Open Reading Frame of firefly Luciferase is under the control of the rat VEGF gene promoter.
(§2) The Hep-3B-VEGF Luciferase cell line was obtained according to the following procedure.
(§3) Human hepatocarcinoma cells Hep-3B (ATCC reference No. HB-8064) were seeded onto 6-well plates at a concentration of 2.5×10^5 cells/well in 2 ml DMEM/10% FCS and the following day were transfected using Fugene 6 (Roche Biochemicals®). In each well, the transfection mixtures contained 6 μl of the transfection reagent Fugene 6, 1 μg of the pxp2-VEGF-luciferase reporter plasmid (VEGF rat promoter, NCBI GenBank No. of accession U22373, Levy et al., J. Biol. Chem. 270 (22), 13333-13340, 1995), and 10 ng of pcDNA3.1(+)plasmid (INVITROGEN) which makes the cells resistant to neomycin. Transfection was carried out according to the manufacturer's instructions.
(§4) A suitable cell population (phenotypically resistant to neomycin) was selected by means of a cloning approach based on the “dilution limit” procedure (Sambrook J., Fritsch E. F. and Maniatis T. (1989) Molecular Cloning, A Laboratory Manual; Cold Spring Harbor Laboratories). The subsequent assays for Luciferase expression/activity (Luciferase assay) and for the quantification of secreted VEGF in the supernatant (ELISA secreted VEGF test) were carried out with the stably transfected selected cells.
(§5) The following experimental protocol was used:
(§6) Day 1. Hep-3B-VEGF Luciferase cells were seeded onto “blank” 96-wells plates (Greiner) at a density of 1×10^4 cells/well/125 μl of medium, then left to adhere overnight in thermostat (37° C./5% CO2).
(§7) Day 2. 75 μl of “3.2× working solutions” of compound (previously prepared in culture medium so that the DMSO concentration is 1.6% v/v) were added to the cells (partial volume/well=200 μl, partial concentration of compound=1.2×, partial concentration of DMSO=0.6%). After 1 hour incubation in thermostat, hypoxia was induced chemically by addition of 40 μl/well of a 6× (600 μM) stock solution of deferoxamine (final volume/well=240 μl, final concentration of compound=1×, final concentration of DMSO=0.5%, final concentration of deferoxamine=1×≈100 μM). The plates were then thermostated for further 18-20 hours.
(§8) Day 3. The Luciferase assay and the secreted VEGF ELISA test were carried out as follows.
Quantification of secreted VEGF was performed using the “DuoSet Elisa Development System human VEGF” kit (R&D Systems). […] of the supernatant from the “blank” 96-well plates with the cells of the Hep3B/VEGF Luciferase clone were transferred into transparent 96-well plates (Maxisorp) and assayed according to the indications of the kit manufacturer.
(§9) IC50 values (concentration of the compound that causes 50% inhibition of the luciferase signal or 50% reduction of secreted VEGF) for some compounds of the invention are reported in table 2.

Assay [2] concerns VEGF promoter (rat VEGF gene promoter-luciferase reporter in Hep3B cells). As to the kind of experiment: Luciferase assay in Hep3B-VEGF Luciferase cells, hypoxia induced by deferoxamine. Format: cell-based, human. The note with it: deferoxamine about 100 μM, 18-20 hours, 50% inhibition of the luciferase signal. On the procedure:
as §1
Hif-1 induction by deferoxamine (which causes hypoxia) induces luciferase transcription through activation of the VEGF promoter, which in turn increases luciferase activity, which can be measured with a commercially available kit. The compounds interfering with the Hif-1a/p300 complex inhibit Hif-dependent luciferase activation, resulting in a reduction of luciferase activity. Therefore, this assay allows to evaluate the activity of the compounds towards the VEGF promoter, which is essential to VEGF production and subsequent tumor angiogenesis.
as §2, §3, §4, §5, §6, §7, §8
Quantification of the expression of the Luciferase reporter gene was performed by means of the Bright Glo Reagent (Promega). After removing the supernatant and washing once with PBS, 40 μl/well of Bright Glo Reagent were added to blank 96-well plates with Hep3B/VEGF-Luciferase cells. The expression levels of the reporter gene were determined by reading the plates with a luminometer.
as §9

Assay [3] addresses T1, Biot-HIF-1α786-826/GST-p300323-423 (Homo sapiens, UniProt Q09472).
T1 construct: the p300 region ranging from amino acids 323 to 423; Hif-1α fragment corresponding to C-terminal 786-826 amino acids; made in house; host or cells: E. coli BL21 (DE3), vector pGEX-4T-1
Nature of the assay: Primary biochemical assay for inhibition of the Hif-1α/p300 interaction (DELFIA fluorescence assay). Format: binding. The note with it: biotinylated Hif-1α 786-826 / GST-p300 323-423, mean of two independent experiments. The procedure:
Primary Biochemical Assay for the Inhibition of Biot-HIF-1α^786-826/GST-p300^323/423
The compounds were evaluated for their ability to inhibit the interaction between Hif-1α and p300 using a fluorescence assay (DELFIA™). The procedure described by Freedman S J at al., Nature Structural Biology 2003, 10 (7), 504-512 was suitably modified.
The human biotinylated Hif-1α fragment corresponding to C-terminal 786-826 amino acids (Biotinylated Hif-1α^786-826) was obtained from AnaSpec Inc (San Jose, Calif., USA) and used without further purifications.
A construct expressing the GST-p300^323-423 fragment was transformed in the BL21 strain (DE3) of E. coli. Said construct was obtained by cloning in the expression vector pGEX-4T-1 (Amersham No. 27-45-80-01) the DNA sequence which encodes for the p300 region ranging from amino acids 323 to 423; the DNA sequence was obtained by PCR (Polymerase Chain Reaction). Protein expression was induced with 1 mM isopropyl-1-thio-13-D-galactopyranoside (IPTG). The bacteria were lysed by sonication in the presence of a suitable buffer (50 mM Tris.HCl pH 8.00, 100 mM NaCl, 0.1 mM ZnSO4, 1 mM DTT, 0.1 mg/ml lysozyme and a tablet of Complete EDTA-free Protease Inhibitor Cocktail Tablets (Roche, catalogue number 1 873 580)) and the GST fusion protein present in the soluble fraction was purified on a Glutathione-Sepharose 4B resin (Amersham Biosciences; no. 27-4574-01). The protein final concentration was determined according to Bradford with the Biorad assay (Bradford M., Anal. Biochem., 72, 248, (1976)) and sample purity was evaluated by SDS-PAGE. The samples were stored at −80° C. in 50% glycerol.
The assay was carried out using NUNC Maxisorp 96-well plates as follows.
C96 NUNC Maxisorp plates (from Nunc, product No. 446612) were incubated overnight with streptavidin (Sigma; product No. S 4762) at a final concentration of 1 μg/ml in PBS buffer (Phosphate Buffered Saline 10 mM sodium phosphate, 150 mM sodium chloride pH 7.4). Each well was subsequently washed with 3×300 μl of TBST buffer (50 mM Tris-HCl pH 8.0, 150 mM NaCl, 0.05% (v/v) Tween 20). Each well was then added with 100 μl of a 10 nM solution of biotinylated Hif-1α^786-826 in TBSB (50 mM Tris-HCl pH 8.0, 150 mM NaCl, 5% (w/v) BSA (Sigma, product No. A 2153)) and incubated for 1 h at 25° C. In the last row of each plate, TBSB buffer only was added. Each well was subsequently washed with 3×300 μl of TBST buffer. The thus prepared plate represented the assay plate.
Separately, a plate (daughter plate) containing in each well 10 μl of each test compound dissolved in DMSO to a concentration of 10 μM was prepared. This plate was added with 100 μl of a 111 pM solution of GST-p300^323-423 diluted in the incubation buffer (TBSB added with 0.1% (v/v) Tween 20, 0.5 mM DTT, 10 μM ZnCl2) and the whole was mixed. 100 μl of the mixture contained in the daughter plate was immediately transferred to the assay plate.
Each daughter plate was prepared with 80 different compounds at a 10 μM concentration, safe for the last two well rows, wherein each well was added with 10 μl of DMSO. These two rows represented the positive (row 11, +Hif-1) and negative (row 12, −Hif-1) controls.
After incubation for 1 h at 25° C., each well was washed with 3×300 μl of TBST buffer (50 mM Tris-HCl pH 8.0, 150 mM NaCl, 0.05% (v/v) Tween 20). Each well was then added with 60.8 ng of an europium-labelled anti-GST antibody (DELFIA Eu-N1 labeled; Perkin Elmer; product no. A D 0251) dissolved in 100 μl of TBST buffer containing 10 μM ZnCl2. After incubation for 1 h at room temperature, each well was washed with 3×300 μl of TBST buffer, then 100 μl of signal amplification solution (Enhancement Solution, Perkin Elmer product No. 1244-105) was added.
The plates were then read using a FUSION alpha-FP-HT reader (Perkin Elmer) in fluorescence mode for time resolution.
The activity of the compounds was calculated as follows. […]

T1 sequence (Q09472 323-423): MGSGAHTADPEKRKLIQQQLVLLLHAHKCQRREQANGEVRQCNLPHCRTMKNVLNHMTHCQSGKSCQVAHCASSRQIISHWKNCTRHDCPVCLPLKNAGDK

For `COC(=O)c1ccccc1-c1ccc(/C=C2/SC(=S)N(Cc3ccccc3)C2=O)o1` [Compound 1, 2-[5-(3-benzyl-4-oxo-2-thioxo-thiazolidine-5-ylidenemethyl)-furan-2-yl]benzoic acid methyl ester], the IC50 (in general, the concentration needed to halve the response being measured) in assay [1] turned out to be 0.37 µM; in assay [2], 6.66 µM; in assay [3] it was 8.6 µM.

With `NS(=O)(=O)c1ccc(-c2ccc(/C=C3/SC(=S)N(Cc4ccccc4)C3=O)o2)cc1` [Compound 7, 4-[5-(3-benzyl-4-oxo-2-thioxo-thiazolidine-5-ylidenemethyl)-furan-2-yl]benzenesulfonamide], the results for the IC50 in assay [1], in assay [2] and in assay [3] were 0.87 µM, 3.16 µM and 4.9 µM, respectively.

For the compound `COC(=O)c1ccc(-c2ccc(/C=C3/SC(=S)N(Cc4ccc(C)cc4)C3=O)o2)cc1` [Compound 9, 4-{5-[3-(4-methylbenzyl)-4-oxo-2-thioxo-thiazolidine-5-ylidenemethyl]-furan-2-yl}benzoic acid methyl ester], the values for the IC50 in assay [1], in assay [2] and in assay [3] were 0.18 µM, above 5 µM and 5.9 µM, respectively.

With `COC(=O)c1ccc(-c2ccc(/C=C3/SC(=S)N(Cc4cccs4)C3=O)o2)cc1` [Compound 13, 4-{5-[3-(2-thienyl)methyl-4-oxo-2-thioxo-thiazolidine-5-ylidenemethyl]-furan-2-yl}benzoic acid methyl ester], the IC50 came to 0.58 µM in assay [1], 9.64 µM in assay [2] and 14.7 µM in assay [3].

As for `COC(=O)c1ccc(-c2ccc(/C=C3/SC(=S)N(CCCN4CCOCC4)C3=O)o2)cc1` [Compound 16, 4-{5-[3-(morpholine-4-yl-propyl)-4-oxo-2-thioxo-thiazolidine-5-ylidenemethyl]-furan-2-yl}benzoic acid methyl ester], the IC50 in assay [1] came out at 0.7 µM; in assay [2], 2.07 µM; in assay [3], 11.1 µM.

Turning to `COc1ccc(CCN2C(=O)/C(=C\c3ccc(-c4ccc(C#N)cc4)o3)SC2=S)cc1OC` [Compound 18, 4-{5-[3-[2-(3,4-dimethoxyphenyl)ethyl]-4-oxo-2-thioxo-thiazolidine-5-ylidenemethyl]-furan-2-yl}benzonitrile], the values for the 50% inhibitory concentration (IC50) in assay [1], in assay [2] and in assay [3] were 0.49 µM, 3.17 µM and 29.9 µM, respectively.

With `N#Cc1ccc(-c2ccc(/C=C3/SC(=S)N(CCc4ccccc4)C3=O)o2)cc1` [Compound 19, 4-{5-[3-(2-phenyl)ethyl-4-oxo-2-thioxo-thiazolidine-5-ylidenemethyl]-furan-2-yl}benzonitrile], the values for the IC50 in assay [1], in assay [2] and in assay [3] were 0.33 µM, 7.29 µM and 1.4 µM, respectively.

As for `COC(=O)c1ccc(-c2ccc(/C=C3/SC(=S)N(CCc4ccccc4)C3=O)o2)cc1` [Compound 20, 4-{5-[3-[2-(phenyl)ethyl]-4-oxo-2-thioxo-thiazolidine-5-ylidenemethyl]-furan-2-yl}benzoic acid methyl ester], the values for the IC50 in assay [1], in assay [2] and in assay [3] were 0.46 µM, 10.5 µM and 4.2 µM, respectively.

On to `COC(=O)c1ccc(-c2ccc(/C=C3/SC(=S)N(CCc4ccc(OC)c(OC)c4)C3=O)o2)cc1` [Compound 21, 4-{5-[3-[2-(3,4-dimethoxyphenyl)ethyl]-4-oxo-2-thioxo-thiazolidine-5-ylidenemethyl]-furan-2-yl}benzoic acid methyl ester], for which the IC50 in assay [1] amounted to 0.24 µM; in assay [2] it was 4.86 µM; in assay [3] it was 7.4 µM.

Values taken from patent US20080261980A1, “Use of Thiazolidinone Derivatives as Antiangiogenic Agents” (Cell Therapeutics, Inc., priority 2004, published 2008).
